Here are results for 18 molecules from patent US12570642B2, “GLP-IR modulating compounds” (Gilead Sciences, Inc., priority 2021, dated 2026).

GLP-1R, sequence (P43220 24-463): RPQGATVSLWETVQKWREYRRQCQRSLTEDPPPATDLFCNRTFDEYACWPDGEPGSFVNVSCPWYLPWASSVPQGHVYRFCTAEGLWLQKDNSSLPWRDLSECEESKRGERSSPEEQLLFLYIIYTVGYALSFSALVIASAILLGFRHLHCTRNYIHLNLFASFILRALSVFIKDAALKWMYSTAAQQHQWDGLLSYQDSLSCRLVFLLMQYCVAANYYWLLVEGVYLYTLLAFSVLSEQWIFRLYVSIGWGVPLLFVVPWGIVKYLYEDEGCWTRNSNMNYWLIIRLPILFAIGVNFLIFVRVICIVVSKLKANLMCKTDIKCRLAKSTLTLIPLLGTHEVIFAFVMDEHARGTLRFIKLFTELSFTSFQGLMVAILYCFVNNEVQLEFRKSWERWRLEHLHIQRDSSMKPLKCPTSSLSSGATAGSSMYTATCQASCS

The assay concerns the target GLP-1R (Homo sapiens, UniProt P43220). Briefly: GLP-1R Activation - cAMP Assay. It counts as cell-based. Particulars: cAMP increase in CHO cells stably expressing GLP-1R; each compound run on one of the two cAMP assays (Assay 1 or Assay 2, not specified). Summed up:
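cAMP rise read by HTRF after 30 min agonist exposure (10-point titration, 37 °C) in HBSS/20 mM Hepes/0.1% BSA, following 1 h pre-incubation. Cells: stable GLP-1R CHO line, 1,000/well, seeded overnight. Sigmoidal fit of response vs log concentration gives EC50.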
`COC(C)(C)Cn1c(Cc2cc(F)c(-c3cccc(OCc4ccc(Cl)cc4F)n3)cc2F)nc2ccc(C(=O)O)cc21` [Example 510, 2-(4-(6-((4-chloro-2-fluorobenzyl)oxy)pyridin-2-yl)-2,5-difluorobenzyl)-1-(2-methoxy-2-methylpropyl)-1H-benzo[d]imidazole-6-carboxylic acid] had an EC50 of 0.509 nM.
Consider `COCCn1c(Cc2cc(F)c(-c3cccc(OCc4ccc(C#N)cc4)n3)cc2F)nc2ccc(C(=O)O)cc21` [Example 511, 2-(4-(6-((4-cyanobenzyl)oxy)pyridin-2-yl)-2,5-difluorobenzyl)-1-(2-methoxyethyl)-1H-benzo[d]imidazole-6-carboxylic acid], for which a half-maximal effect (EC50) was put at 0.588 nM.
The molecule `Cn1nnc2cc(COc3cccc(-c4cc(F)c(Cc5nc6ccc(C(=O)O)cc6n5[C@@H]5COCC5(C)C)cc4F)n3)ccc21` [Example 512, (S)-2-(2,5-difluoro-4-(6-((1-methyl-1H-benzo[d][1,2,3]triazol-5-yl)methoxy)pyridin-2-yl)benzyl)-1-(4,4-dimethyltetrahydrofuran-3-yl)-1H-benzo[d]imidazole-6-carboxylic acid] gave an EC50 of 0.515 nM.
For `Cn1nnc2ccc(COc3cccc(-c4cc(F)c(Cc5nc6ccc(C(=O)O)cc6n5[C@@H]5COCC5(C)C)cc4F)n3)cc21` [Example 513, (S)-2-(2,5-difluoro-4-(6-((1-methyl-1H-benzo[d][1,2,3]triazol-6-yl)methoxy)pyridin-2-yl)benzyl)-1-(4,4-dimethyltetrahydrofuran-3-yl)-1H-benzo[d]imidazole-6-carboxylic acid] the value was 0.208 nM; for `COCCn1c(Cc2cc(F)c(-c3cccc(OCc4ccc5c(c4)CN(S(C)(=O)=O)C5)n3)cc2F)nc2c(F)cc(C(=O)O)cc21` [Example 514, 2-(2,5-difluoro-4-(6-((2-(methylsulfonyl)isoindolin-5-yl)methoxy)pyridin-2-yl)benzyl)-4-fluoro-1-(2-methoxyethyl)-1H-benzo[d]imidazole-6-carboxylic acid], 0.152 nM; for `COC(=O)N1Cc2ccc(COc3nc(-c4cc(F)c(Cc5nc6c(F)cc(C(=O)O)cc6n5C[C@@H]5CCO5)cc4F)ccc3F)cc2C1` [Example 515, (S)-2-(2,5-difluoro-4-(5-fluoro-6-((2-(methoxycarbonyl)isoindolin-5-yl)methoxy)pyridin-2-yl)benzyl)-4-fluoro-1-(oxetan-2-ylmethyl)-1H-benzo[d]imidazole-6-carboxylic acid], 0.074 nM.
For `COC(=O)N1Cc2ccc(COc3nc(-c4cc(F)c(Cc5nc6ccc(C(=O)O)cc6n5C[C@@H]5CCO5)cc4F)ccc3F)cc2C1` [Example 516, (S)-2-(2,5-difluoro-4-(5-fluoro-6-((2-(methoxycarbonyl)isoindolin-5-yl)methoxy)pyridin-2-yl)benzyl)-1-(oxetan-2-ylmethyl)-1H-benzo[d]imidazole-6-carboxylic acid] the value was 0.088 nM; for `CS(=O)(=O)N1Cc2ccc(COc3cccc(-c4cc(F)c(Cc5nc6c(F)cc(C(=O)O)cc6n5C[C@@H]5CCO5)cc4F)n3)cc2C1` [Example 517, (S)-2-(2,5-difluoro-4-(6-((2-(methylsulfonyl)isoindolin-5-yl)methoxy)pyridin-2-yl)benzyl)-4-fluoro-1-(oxetan-2-ylmethyl)-1H-benzo[d]imidazole-6-carboxylic acid], 0.024 nM; for `CO[C@@H](C)Cn1c(Cc2cc(F)c(-c3cccc(OCc4ccc(C#N)cc4F)n3)cc2F)nc2c(F)cc(C(=O)O)cc21` [Example 518, (S)-2-(4-(6-((4-cyano-2-fluorobenzyl)oxy)pyridin-2-yl)-2,5-difluorobenzyl)-4-fluoro-1-(2-methoxypropyl)-1H-benzo[d]imidazole-6-carboxylic acid], 0.887 nM.
The molecule `CS(=O)(=O)N1Cc2ccc(COc3cccc(-c4cc(F)c(Cc5nc6ccc(C(=O)O)cc6n5C[C@@H]5CCO5)cc4F)n3)cc2C1` [Example 519, (S)-2-(2,5-difluoro-4-(6-((2-(methylsulfonyl)isoindolin-5-yl)methoxy)pyridin-2-yl)benzyl)-1-(oxetan-2-ylmethyl)-1H-benzo[d]imidazole-6-carboxylic acid] yielded a half-maximal effective concentration (EC50) of 0.102 nM.
Next, `O=C(O)c1ccc2nc(Cc3cc(F)c(-c4cccc(OCc5ccc6c(c5)CN(C(=O)C5CC5)C6)n4)cc3F)n(C[C@@H]3CCO3)c2c1` [Example 520, (S)-2-(4-(6-((2-(cyclopropanecarbonyl)isoindolin-5-yl)methoxy)pyridin-2-yl)-2,5-difluorobenzyl)-1-(oxetan-2-ylmethyl)-1H-benzo[d]imidazole-6-carboxylic acid]: 0.27 nM.
Take `COC(=O)N1Cc2ccc(COc3cccc(-c4cc(F)c(Cc5nc6ccc(C(=O)O)cc6n5C[C@@H]5CCO5)cc4F)n3)cc2C1` [Example 521, (S)-2-(2,5-difluoro-4-(6-((2-(methoxycarbonyl)isoindolin-5-yl)methoxy)pyridin-2-yl)benzyl)-1-(oxetan-2-ylmethyl)-1H-benzo[d]imidazole-6-carboxylic acid]: the EC50 was 0.111 nM.
Next, `CC(=O)N1Cc2ccc(COc3cccc(-c4cc(F)c(Cc5nc6ccc(C(=O)O)cc6n5C[C@@H]5CCO5)cc4F)n3)cc2C1` [Example 522, (S)-2-(4-(6-((2-acetylisoindolin-5-yl)methoxy)pyridin-2-yl)-2,5-difluorobenzyl)-1-(oxetan-2-ylmethyl)-1H-benzo[d]imidazole-6-carboxylic acid]: 0.165 nM.
Molecule `Cn1nnc2cc(COc3cccc(-c4cc(F)c(Cc5nc6ccc(C(=O)O)cc6n5C[C@@H]5CCO5)cc4F)n3)ccc21` [Example 523, (S)-2-(2,5-difluoro-4-(6-((1-methyl-1H-benzo[d][1,2,3]triazol-5-yl)methoxy)pyridin-2-yl)benzyl)-1-(oxetan-2-ylmethyl)-1H-benzo[d]imidazole-6-carboxylic acid] yielded an EC50 of 0.362 nM. Against the preceding molecule, the EC50 is about 2.2-fold higher.
Next, `Cn1ncc2ccc(COc3cccc(-c4cc(F)c(Cc5nc6ccc(C(=O)O)cc6n5C[C@@H]5CCO5)cc4F)n3)cc21` [Example 524, (S)-2-(2,5-difluoro-4-(6-((1-methyl-1H-indazol-6-yl)methoxy)pyridin-2-yl)benzyl)-1-(oxetan-2-ylmethyl)-1H-benzo[d]imidazole-6-carboxylic acid]: 0.605 nM.
Next, `Cn1nnc2ccc(COc3cccc(-c4cc(F)c(Cc5nc6ccc(C(=O)O)cc6n5C[C@@H]5CCO5)cc4F)n3)cc21` [Example 525, (S)-2-(2,5-difluoro-4-(6-((1-methyl-1H-benzo[d][1,2,3]triazol-6-yl)methoxy)pyridin-2-yl)benzyl)-1-(oxetan-2-ylmethyl)-1H-benzo[d]imidazole-6-carboxylic acid]: 0.429 nM; `Cn1ncc2cc(COc3cccc(-c4cc(F)c(Cc5nc6ccc(C(=O)O)cc6n5C[C@@H]5CCO5)cc4F)n3)ccc21` [Example 526, (S)-2-(2,5-difluoro-4-(6-((1-methyl-1H-indazol-5-yl)methoxy)pyridin-2-yl)benzyl)-1-(oxetan-2-ylmethyl)-1H-benzo[d]imidazole-6-carboxylic acid]: 0.509 nM.
Next, `O=C(O)c1ccc2nc(Cc3cc(F)c(-c4cccc(OCc5ccc6nsnc6c5)n4)cc3F)n(C[C@@H]3CCO3)c2c1` [Example 527, (S)-2-(4-(6-(benzo[c][1,2,5]thiadiazol-5-ylmethoxy)pyridin-2-yl)-2,5-difluorobenzyl)-1-(oxetan-2-ylmethyl)-1H-benzo[d]imidazole-6-carboxylic acid]: 0.184 nM.
